Measured values taken from PubChem BioAssay AID1963829 (Molecular Pharmacology Branch, DTP, NCI, 2024).
Several values for one entry are separate records, joined by “and”; a condition that tells them apart may be missing. Equal values may be shown once.

System: 935938-334-R-J1-PDC complex spheroid viability
Assay: Anticancer human tumor 935938-334-R-J1-PDC patient-derived small intestine adenocarcinoma cell line growth inhibition [POLQ]
Conditions: for viability, T/C: stronger effect = lower value; active means viability on the fitted dose curve at most 10% of control; inactive means the rest
Method: Multicellular complex tumor spheroid response to Polymerase (POL) inhibitors (novobiocin, ART-558, RP6685) in combination with a variety of drugs and investigational agents in selected tumor cell lines
The POL inhibitors (novobiocin, ART-558, and RP6685) were evaluated both individually and in combination with standard of care and investigational anticancer small molecules within a complex spheroid model of solid tumors. . Complex spheroids include a stromal component modeled by human endothelial cells (HUVEC) and fibroblasts modeled by human mesenchymal stem cells (MSCs). The concentration ranges selected for each drug and investigational agent were based upon clinically achievable concentrations if the clinical Cmax of the agent was known.
Compounds. The drugs and investigational agents: novobiocin (NSC847541), ART-558 (NSC835418), RP-6685 (NSC848927), peposertib (NSC802822), ceralasertib (NSC780249), elimusertib (NSC800525), camonsertib (NSC841442), AZD-1390 (NSC803789), olaparib (NSC753686), talazoparib (NSC767125), rucaparib (NSC756644), sotorasib (NSC818433), MRTX-1133 (NSC836407), SN-38 (NSC673596), topotecan (NSC609699), epotoside (NSC141540), doxorubicin (NSC123127), gemcitabine (NSC613327), 5-fluorouracil (NSC19893), paclitaxel (NSC125973), vemurafenib (NSC761431), MSA-2 (NSC828583), SN-011 (NSC837082), adavosertib (NSC754352), prexasertib (NSC758257), carboplatin (NSC241240) and oxaliplatin (NSC266046), were obtained from the National Cancer Institute (NCI) Developmental Therapeutics Program Chemical Repository (21). The FDA-approved anticancer drug set is available from the Developmental Therapeutics Program at https://dtp.cancer.gov/organization/dscb/obtaining/. […] The stock solutions were prepared in dimethyl sulfoxide (DMSO, Sigma-Aldrich, St. Louis, MO, cat. D2650), except for the platinum compounds which were prepared in saline (Quality Biological, Gaithersburg, MD, cat. 114-055-101), at 800-fold the tested concentration and stored at -70 degrees C prior to their use. All drugs and investigational agents were tested over a range starting from a high concentration at or near the clinical Cmax and decreasing in half-log increments. If the clinical Cmax for an agent had not been determined, the highest concentration tested was 10 microM, except for SN-38, which was tested at a high concentration of 1 microM.
Cell Culture. All cells were maintained in an incubator at 37 degrees C and 5% CO2 with 95% humidity. The PDC lines were cultured according to standard operating procedures established by the NCI PDMR (https://pdmr.cancer.gov). Table 3 of the manuscript, lists the cell lines along with the number of the three cell types plated to form the mct-spheroids and media for tumor cell growth. After thawing, all PDC lines, except 997537-175-T-J1-PDC and 415267-285-R-J2-PDC, were cultured in Matrigel-coated flasks prepared with a working solution of 1X Ham's F-12 nutrient mix, without supplementation (Thermo Fisher Scientific, cat. 11765054), 100 U/mL penicillin-streptomycin (Thermo Fisher Scientific, cat. 15140122), and 2.5% Matrigel (Corning Inc., Corning, NY, cat. 354248) for the first three passages. The two PDC lines 997537-175-T-J1-PDC and 415267-285-R-J2-PDC were cultured on uncoated flasks. The 857933-349-R-J2-PDC line was cultured in 6C/Colon 1B media containing advanced DMEM/F-12 (Thermo Fisher Scientific, cat. 12634028), 10 mM HEPES (Thermo Fisher Scientific, cat. 15630080), 1X GlutaMAX supplement (Thermo Fisher Scientific, cat. 35050061), 0.1 mg/mL primocin (InvivoGen, San Diego, CA, cat. ant-pm-2), 10% defined fetal bovine serum, heat inactivated (HyClone Laboratories Inc., Logan, UT, cat. SH30070.03HI), 50% L-WRN conditioned media (ATCC, cat. CRL-3276), 1.25 mM N-Acetyl-L-cysteine (Sigma-Aldrich, cat. A9165), 10 mM nicotinamide (Sigma-Aldrich, cat. N0636), 1X B-27 supplement (Thermo Fisher Scientific, cat. 17504044), 1X N-2 supplement (Thermo Fisher Scientific, cat. […]
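Further: spheroids exposed to drugs for seven days before viability read.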
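Wherever viability, T/C is given: 100% = DMSO vehicle control wells.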

CCc1cc2c(N3CCc4c(cc(Cn5ccnc5)cc4-c4cn(C)nc4C(F)(F)F)C3=O)cc(C)nc2c(OC)n1 + COC1C(OC(N)=O)C(O)C(Oc2ccc3c(O)c(NC(=O)c4ccc(O)c(CC=C(C)C)c4)c(=O)oc3c2C)OC1(C)C
> 10 µM: IC50 (curve of first compound, second compound 0.0316 µM) | IC50 (curve of first compound, second compound 0.1 µM) | IC50 (curve of first compound, second compound 0.316 µM) | IC50 (curve of first compound, second compound 1 µM) | IC50 (curve of first compound, second compound 3.16 µM) | IC50 (curve of first compound, second compound 10 µM)
inactive: viability, T/C (second compound 0.0316 µM, first compound 0.0316 µM) 83.6% | viability, T/C (second compound 0.0316 µM, first compound 0.1 µM) 81.1% | viability, T/C (second compound 0.0316 µM, first compound 0.316 µM) 77.7% | viability, T/C (second compound 0.0316 µM, first compound 1 µM) 72.9% | viability, T/C (second compound 0.0316 µM, first compound 3.16 µM) 64.6% | viability, T/C (second compound 0.0316 µM, first compound 10 µM) 64.8% | viability, T/C (second compound 0.1 µM, first compound 0.0316 µM) 80.8% | viability, T/C (second compound 0.1 µM, first compound 0.1 µM) 83.1% | viability, T/C (second compound 0.1 µM, first compound 0.316 µM) 74.1% | viability, T/C (second compound 0.1 µM, first compound 1 µM) 62.8% | viability, T/C (second compound 0.1 µM, first compound 3.16 µM) 70.4% | viability, T/C (second compound 0.1 µM, first compound 10 µM) 64% | viability, T/C (second compound 0.316 µM, first compound 0.0316 µM) 74.6% | viability, T/C (second compound 0.316 µM, first compound 0.1 µM) 72.5% | viability, T/C (second compound 0.316 µM, first compound 0.316 µM) 75.5% | viability, T/C (second compound 0.316 µM, first compound 1 µM) 70.5% | viability, T/C (second compound 0.316 µM, first compound 3.16 µM) 75.4% | viability, T/C (second compound 0.316 µM, first compound 10 µM) 60% | viability, T/C (second compound 1 µM, first compound 0.0316 µM) 64.7% | viability, T/C (second compound 1 µM, first compound 0.1 µM) 72% | viability, T/C (second compound 1 µM, first compound 0.316 µM) 90.6% | viability, T/C (second compound 1 µM, first compound 1 µM) 88.9% | viability, T/C (second compound 1 µM, first compound 3.16 µM) 73.9% | viability, T/C (second compound 1 µM, first compound 10 µM) 71.3% | viability, T/C (second compound 3.16 µM, first compound 0.0316 µM) 64.4% | viability, T/C (second compound 3.16 µM, first compound 0.1 µM) 73.6% | viability, T/C (second compound 3.16 µM, first compound 0.316 µM) 73% | viability, T/C (second compound 3.16 µM, first compound 1 µM) 61.5% | viability, T/C (second compound 3.16 µM, first compound 3.16 µM) 74.7% | viability, T/C (second compound 3.16 µM, first compound 10 µM) 56.4% | viability, T/C (second compound 10 µM, first compound 0.0316 µM) 85.7% | viability, T/C (second compound 10 µM, first compound 0.1 µM) 68.8% | viability, T/C (second compound 10 µM, first compound 0.316 µM) 71.8% | viability, T/C (second compound 10 µM, first compound 1 µM) 71.5% | viability, T/C (second compound 10 µM, first compound 3.16 µM) 78.5% | viability, T/C (second compound 10 µM, first compound 10 µM) 66.7%

O=C(c1cc(Cc2n[nH]c(=O)c3ccccc23)ccc1F)N1CCN(C(=O)C2CC2)CC1
inactive: viability, T/C (compound 0.0316 µM) 88.4% and 80.5% and 75% | viability, T/C (compound 0.1 µM) 103% and 70.2% and 77.2% | viability, T/C (compound 0.316 µM) 100% and 67.5% and 112% | viability, T/C (compound 1 µM) 94.9% and 67.4% and 68.7% | viability, T/C (compound 3.16 µM) 72% and 64.6% and 73.7% | viability, T/C (compound 10 µM) 54.9% and 55.4% and 55.1%
> 10 µM: IC50 (curve of compound)

CCc1cc2c(N3CCc4c(cc(Cn5ccnc5)cc4-c4cn(C)nc4C(F)(F)F)C3=O)cc(C)nc2c(OC)n1
inactive: viability, T/C (compound 0.0316 µM) 63.3% and 77.3% and 86.5% | viability, T/C (compound 0.1 µM) 98.4% and 69.4% and 64.3% | viability, T/C (compound 0.316 µM) 72.6% and 62.2% and 67.1% | viability, T/C (compound 1 µM) 65.5% and 59.4% and 67.5% | viability, T/C (compound 3.16 µM) 65.5% and 71.2% and 67.9% | viability, T/C (compound 10 µM) 57.6% and 57% and 58.1%
> 10 µM: IC50 (curve of compound)

COc1cc2cc(C(=O)CCC(=O)O)sc2cc1OC
> 10 µM: IC50 (curve of compound)
inactive: viability, T/C (compound 0.0316 µM) 106% and 94.9% and 129% | viability, T/C (compound 0.1 µM) 67.4% and 98.4% and 94.5% | viability, T/C (compound 0.316 µM) 126% and 89.9% and 95.3% | viability, T/C (compound 1 µM) 100% and 99.5% and 86.7% | viability, T/C (compound 3.16 µM) 84.1% and 107% and 110% | viability, T/C (compound 10 µM) 67.2% and 78.6% and 93.8%

COc1cccc(OCCCN)c1-c1cc(Nc2cnc(C#N)cn2)n[nH]1
0.0336 µM and 0.0538 µM and 0.0509 µM: IC50 (curve of compound)
active: viability, T/C (compound 1 µM) 10% and 10.2% and 9.09%
inactive: viability, T/C (compound 0.00316 µM) 93.3% and 117% and 102% | viability, T/C (compound 0.01 µM) 77.8% and 102% and 85.5% | viability, T/C (compound 0.0316 µM) 53.3% and 60.4% and 57.6% | viability, T/C (compound 0.1 µM) 22.6% and 36.9% and 41.6% | viability, T/C (compound 0.316 µM) 11.3% and 14.1% and 8.34%

Nc1ccc(C#CCN(C(=O)Cc2ncc(C(F)(F)F)cc2C(F)(F)F)c2ccc(F)cc2)nn1
> 10 µM: IC50 (compound alone, run of 12/05/2023)
